Experimental findings from patent US8716472B2, “Tripodal cyclohexane derivatives and their use as carbohydrate receptors” (University of Rochester, priority 2006, dated 2014) are described below.

Entries after “also recorded” stand apart in the source; their conditions may differ.

A short description of series [1]: 1H NMR reverse titration (receptor into the sugar) and Job plot. Type of series: binding. Conditions: CDCl3, n-octyl-β-D-glucopyranoside. The protocol:
(§1) The binding affinity of Compound 12 towards a set of octylglycosides (FIG. 15) was measured using ^1H NMR titrations in CDCl3 and UV titrations in chloroform and methanol.
A reverse titration format (receptor into the sugar) was employed for estimating binding by ^1H NMR titrations in order to avoid the complications caused due to micelles formation by octylglycosides at higher concentrations (Vacca et al., J. Am. Chem. Soc. 126:16456-16465 (2004), which is hereby incorporated by reference in its entirety). […] Job plot analysis (as modified for NMR) (Fokkens et al., Chem. Eur. J. 11:477-494 (2005), which is hereby incorporated by reference in its entirety) verified a 1:1 association between Compound 12 and n-octyl-β-D-glucopyranoside (FIG. 9B).

A short description of series [2]: Fluorescence titration, octanol control. Type of series: binding. Conditions: 298° K. The protocol: as §1
(§2) The same titration protocol employed in Example 7 was also employed in this Example (methanol at 298° K; duplicate titrations).
(§3) Fluorescence titrations of 7 with the set of octylglycosides (FIG. 15) in methanol were performed to study the effect of substitution of 4-methylquinoline instead of 4-cyanopyridine on the binding affinity and selectivity of Compound 12. […] The stoichiometry of binding between Compound 7 and n-octyl-α-D-glucopyranoside was determined by Job plot to be 1:1 (FIG. 12).

The nature of series [3]: Fluorescence titration of n-octyl monosaccharides with receptor. Particulars: 298° K. Type of series: binding. How it is done:
as §1, §2, §3

A short description of series [4]: 1D 1H NMR titration of receptor with octyl pyranoside. Type of series: binding. Conditions: n-octyl-β-D-glucopyranoside; CDCl3, 298° K; receptor 1 mM. The protocol: The binding affinity of Compound 11 to octyl pyranosides was tested using 1D ^1H NMR titrations in dry and deacidified CDCl3 at 298° K. The Compound 11 in fixed concentration (1 mM) was titrated with increasing amount of n-octyl-β-D-glucopyranoside and the change in the amide proton resonance of Compound 11 was monitored (FIG. 5A).

Series [5] in a line: UV-Vis titration of n-octyl monosaccharides with receptor. The format is binding. Conditions: for Ka in chloroform / Ka in methanol: 298° K. How it is done: as §1
(§4) To derive quantitative binding information, UV-Vis titrations were performed. The receptor at fixed concentration was titrated with the octylglycosides in dry and deacidified chloroform or methanol (298° K). Each titration was performed in duplicate to verify results.

Series [6] in a line: UV-Vis titration, octanol control. Type of series: binding. Particulars: 298° K. How it is done:
as §1, §4

Setting [7] is: n-octyl β-D-galacto pyranoside, UV-Vis.

As for `N#Cc1ccncc1` [4-cyanopyridine, reference compound], the “changes in carbohydrate hydroxyl chemical shifts on titration into the sugar” value in series [1] is given as “no chemical shift changes were observed”.
`c1cnc(C2CC(c3cnccn3)CC(c3cnccn3)C2)cn1` (stereo not drawn) [Compound 2, 2,2′,2″-cyclohexane-1,3,5-triyltripyrazine]: the melting point was 122 to 124 °C.
On the same count and under the same terms, as for `c1cc(C2CC(c3ccncn3)CC(c3ccncn3)C2)ncn1` (stereo not drawn) [Compound 3, 4,4′,4″-cyclohexane-1,3,5-triyltripyrimidine], the figure is 126 to 128 °C.
As for `Cc1cc(C2CC(c3cc(C)c4ccccc4n3)CC(c3cc(C)c4ccccc4n3)C2)nc2ccccc12` (stereo not drawn) [Compound 7, 2,2,2″-cyclohexane-1,3,5-triyltri(4-methylquinoline)], the Ka in methanol result in series [2] was “(no binding)”; in series [3] (n-octyl α-D-galacto pyranoside), 6,600 ± 200 M^−1; in series [3] (n-octyl α-D-gluco pyranoside), 14,900±1700 M^−1; in series [3] (n-octyl α-D-manno pyranoside), 2600 ± 200 M⁻¹; in series [3] (n-octyl β-D-galacto pyranoside), 3,200 ± 80 M^−1; in series [3] (n-octyl β-D-gluco pyranoside), 9,200 ± 600 M^−1. The Ka in methanol in series [3] (n-octyl β-D-manno pyranoside) is more than 400 M⁻¹.
Regarding `Cc1cccc(NC(=O)[C@H]2C[C@@H](C(=O)Nc3cccc(C)n3)C[C@@H](C(=O)Nc3cccc(C)n3)C2)n1` [Compound 11, cis-cyclohexane-1,3,5-tricarboxylic acid tris-[(6-methyl-pyridin-2-yl)-amide]], the “Ka (measured affinity, NMR titration)” value in series [4] was 91 M⁻¹.
Regarding `N#Cc1ccnc(C2CC(c3cc(C#N)ccn3)CC(c3cc(C#N)ccn3)C2)c1` (stereo not drawn) [Compound 12, 2,2′,2″-cyclohexane-1,3,5-triyltri(4-cyanopyridinyl)], the “affinity for n-octyl-β-D-galactopyranoside relative to the β-D-glucopyranoside” value in series [5] (UV-Vis titration) was “roughly half”. Besides, the Ka in chloroform in series [5] (n-octyl α-D-galacto pyranoside) is given as 17,600 ± 100 M^−1; in series [5] (n-octyl α-D-gluco pyranoside), 183,000±4,200 M^−1; in series [5] (n-octyl α-D-manno pyranoside), 6,700 ± 700 M^−1; in series [5] (setting [7]) it was 9,800 ± 100 M^−1; in series [5] (n-octyl β-D-gluco pyranoside) it was 25,000 ± 600 M^−1; in series [5] (n-octyl β-D-manno pyranoside), “did not reach saturation up to the limit of the titration; also recorded: (not saturable)”. The Ka in chloroform entry in series [6] is listed as “No binding; also recorded: (no binding)”. Moreover, the Ka in methanol in series [5] (n-octyl α-D-galacto pyranoside) is 9,200 ± 1,100 M^−1; in series [5] (n-octyl α-D-gluco pyranoside) it was 52,000 ± 2,700 M^−1; in series [5] (n-octyl α-D-manno pyranoside) it was >1,200 M^−1; in series [5] (setting [7]) it was 7,200 ± 1,700 M^−1; in series [5] (n-octyl β-D-gluco pyranoside), 11,100 ± 600 M^−1; in series [5] (n-octyl β-D-manno pyranoside), “(not saturable)”. Further, the “changes in carbohydrate hydroxyl chemical shifts on titration into the sugar” value in series [1] is given as “clearly visible”.
Regarding `N#Cc1ccnc(C2CC(c3cc(C#N)ccn3)CC(c3cnccc3C#N)C2)c1` (stereo not drawn) [Compound 14, 2,2′,3′-cyclohexane-1,3,5-triyltri(4-cyanopyridinyl)], the Ka in chloroform result in series [5] (n-octyl α-D-gluco pyranoside) is “no affinity”.

A word on the melting point: it is the temperature, or range, at which the solid turns liquid.
